Source: ChEMBL document CHEMBL1148663, “High-throughput screening for Hsp90 ATPase inhibitors” (Bioorg Med Chem Lett, 2006)

Columns and labels:
[1] = target: Heat shock protein HSP90 (Homo sapiens, UniProt P07900+P08238); experiment: Inhibition of Hsp90 by recombinant ATPase assay; type: functional
[2] = system: SK-BR-3; experiment: Antiproliferative activity against human SKBr3 cells; type: functional, cell-based
[3] = Homo sapiens, SK-BR-3, read-out: IC50

| IC50 [1] [µM] | IC50 ([2]; sk-br-3) | IC50 [2, 3] [µM] | Structure (SMILES) |
| --- | --- | --- | --- |
| 7 | Not Active | – | Cc1nc(N)sc1-c1csc(Nc2ccccn2)n1 |
| 3 | Not Active | – | COc1ccc(O)c(-c2c[nH]nc2-c2cccs2)c1 |
| 1.9 | Not Active | – | O=C1CC(Nc2ccc(N3CCOCC3)cc2)C(=O)N1Cc1ccccc1 (stereo not given) |
| 2 | – | 75 | O=S(=O)(Nc1ccc(Cl)cc1O)c1ccccc1 |
| 5.4 | – | 48 | COc1cc(C2CC(c3ccccc3O)=NN2)ccc1O (stereo not given) |
| 2.7 | – | 66 | CC1(C)CC2=Nc3ccccc3NC(c3cccc(O)c3O)C2=C(O)C1 (stereo not given) |
| 2.5 | Not Active | – | COc1cccc(C(=O)Nc2ccc(O)c(C)c2)c1 |
| 4.1 | Not Active | – | O=C1CC(=O)N(c2cccc(Cl)c2)N1 |
| 2.3 | Not Active | – | Cc1cc(O)nc(SCC(=O)c2ccc(O)c(O)c2)n1 |
| 3.2 | Not Active | – | O=c1c(Oc2ccc(F)cc2)coc2c(O)c(O)ccc12 |
